Laboratory results from ChEMBL document CHEMBL4420076, “Amylin and calcitonin receptor agonist” (2017).
Peptide text beside a SMILES is read from it. * marks the point of attachment. C18 diacid = O=C(O)CCCCCCCCCCCCCCCCC(=O)*

Tests used:
[1] = Solubility in 100 mM glycylglycine buffer at pH 3.0 incubated for 18 hrs by UPLC analysis; type: physicochemical
[2] = Solubility in 100 mM bistrispropane buffer at pH 6.0 incubated for 18 hrs by UPLC analysis; type: physicochemical
[3] = Solubility in 100 mM glycylglycine buffer at pH 5.0 incubated for 18 hrs by UPLC analysis; type: physicochemical
[4] = Solubility in 100 mM bistrispropane buffer at pH 6.5 incubated for 18 hrs by UPLC analysis; type: physicochemical
[5] = Solubility in 100 mM bistrispropane buffer at pH 7.0 incubated for 18 hrs by UPLC analysis; type: physicochemical
[6] = Solubility in 100 mM bistrispropane buffer at pH 7.5 incubated for 18 hrs by UPLC analysis; type: physicochemical
[7] = Solubility in 100 mM bistrispropane buffer at pH 8.0 incubated for 18 hrs by UPLC analysis; type: physicochemical
[8] = molecular target: T1, Amylin receptor AMY3; CALCR/RAMP3 (Homo sapiens, UniProt O60896+P30988); test: Agonist activity at human amylin receptor expressed in BHK570 cells co-expressing RAMP3 assessed as increase in intracellular cAMP concentration incubated for 3 hrs in absence of albumin by CRE luciferase reporter gene assay; type: functional, cell-based
T1 sequence (P30988 whole entry): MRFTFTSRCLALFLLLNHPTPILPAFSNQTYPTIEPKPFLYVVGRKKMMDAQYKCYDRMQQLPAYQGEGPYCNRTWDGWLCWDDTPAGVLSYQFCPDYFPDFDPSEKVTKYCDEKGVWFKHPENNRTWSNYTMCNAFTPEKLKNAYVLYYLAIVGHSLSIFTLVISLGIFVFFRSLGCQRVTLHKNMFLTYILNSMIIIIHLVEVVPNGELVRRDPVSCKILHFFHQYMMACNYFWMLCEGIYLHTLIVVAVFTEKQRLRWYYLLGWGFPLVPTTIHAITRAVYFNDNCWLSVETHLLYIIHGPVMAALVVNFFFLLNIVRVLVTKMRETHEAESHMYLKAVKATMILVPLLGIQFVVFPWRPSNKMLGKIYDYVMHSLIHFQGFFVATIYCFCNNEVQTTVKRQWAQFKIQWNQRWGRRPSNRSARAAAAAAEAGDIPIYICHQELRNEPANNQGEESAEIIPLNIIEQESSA
T1 sequence (O60896 whole entry): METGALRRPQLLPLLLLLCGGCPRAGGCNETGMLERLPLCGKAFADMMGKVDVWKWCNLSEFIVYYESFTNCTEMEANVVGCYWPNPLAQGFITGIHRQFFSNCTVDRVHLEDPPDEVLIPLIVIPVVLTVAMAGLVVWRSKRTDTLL

Calcitonin receptor = molecular target: T2, Calcitonin receptor (Homo sapiens, UniProt P30988); test: Agonist activity at human calcitonin receptor expressed in BHK570 cells assessed as increase in intracellular cAMP concentration incubated for 3 hrs in absence of albumin by CRE luciferase reporter gene assay; type: functional, cell-based
T2 sequence (P30988 whole entry): T1 sequence (P30988 whole entry)

Row | solubility at 18 h [1] [µM] | solubility at 18 h [2] [µM] | solubility at 18 h [3] [µM] | solubility at 18 h [4] [µM] | solubility at 18 h [5] [µM] | solubility at 18 h [6] [µM] | solubility at 18 h [7] [µM] | EC50 [8] [pM] | EC50 (Calcitonin receptor) [pM] | Structure (SMILES)
1 | ≥ 200 | ≥ 200 | ≥ 200 | ≥ 200 | ≥ 200 | ≥ 200 | ≥ 200 | – | – | CC[C@@H](C)[C@H](NC(=O)[C@H](C)NC(=O)[C@@H](NC(=O)[C@H](CO)NC(=O)[C@@H](NC(=O)[C@H](CCC(=O)O)NC(=O)[C@H](CO)NC(=O)[C@H](C)NC(=O)[C@H](CCC(=O)O)NC(=O)CCCCCCCCCCCCCCCCC(=O)O)[C@H](C)CC)[C@@H](C)O)C(=O)N[C@@H](CC(C)C)C(=O)NCC(=O)N[C@@H](CCCNC(=N)N)C(=O)N[C@@H](CC(C)C)C(=O)N[C@@H](CO)C(=O)N[C@@H](C)C(=O)N[C@@H](CCC(=O)O)C(=O)N[C@@H](CC(C)C)C(=O)N[C@@H](Cc1cnc[nH]1)C(=O)N[C@@H](CCC(=O)O)C(=O)N[C@@H](CC(C)C)C(=O)N[C@@H](C)C(=O)N[C@H](C(=O)N[C@@H](CC(C)C)C(=O)N1CCC[C@H]1C(=O)N[C@@H](CCCNC(=N)N)C(=O)N[C@H](C(=O)N[C@@H](CCC(=O)O)C(=O)N[C@H](C(=O)NCC(=O)N1CCC[C@H]1C(=O)N[C@@H](CCC(=O)O)C(=O)N[C@@H](CO)C(=O)N1CCC[C@H]1C(N)=O)[C@@H](C)O)[C@@H](C)O)[C@@H](C)O
2 | – | – | – | – | – | – | – | 11 | 7 | CC(C)C[C@H](NC(=O)[C@H](C)NC(=O)[C@H](C)NC(=O)[C@@H](NC(=O)[C@H](CO)NC(=O)[C@H](CC(C)C)NC(=O)[C@H](CCC(=O)O)NC(=O)[C@H](CO)NC(=O)[C@H](C)NC(=O)[C@H](CCC(=O)O)NC(=O)CCCCCCCCCCCCCCCCC(=O)O)[C@@H](C)O)C(=O)NCC(=O)N[C@@H](CCCNC(=N)N)C(=O)N[C@@H](CC(C)C)C(=O)N[C@@H](CO)C(=O)N[C@@H](C)C(=O)N[C@@H](CCC(=O)O)C(=O)N[C@@H](CC(C)C)C(=O)N[C@@H](Cc1cnc[nH]1)C(=O)N[C@@H](CCC(=O)O)C(=O)N[C@@H](CC(C)C)C(=O)N[C@@H](C)C(=O)N[C@H](C(=O)N[C@@H](Cc1ccc(O)cc1)C(=O)N1CCC[C@H]1C(=O)N[C@@H](CCCNC(=N)N)C(=O)N[C@H](C(=O)N[C@@H](CCC(=O)O)C(=O)N[C@H](C(=O)NCC(=O)N1CCC[C@H]1C(=O)N[C@@H](CCC(=O)O)C(=O)N[C@@H](CO)C(=O)N1CCC[C@H]1C(N)=O)[C@@H](C)O)[C@@H](C)O)[C@@H](C)O ({C18 diacid}-EASELSTAALGRLSAELHELATYPRTETGPESP-NH2)
3 | – | ≥ 200 | – | ≥ 200 | ≥ 200 | ≥ 200 | ≥ 200 | 23 | 54 | CC(C)C[C@H](NC(=O)[C@H](CCCNC(=N)N)NC(=O)CNC(=O)[C@H](CC(C)C)NC(=O)[C@@H](NC(=O)[C@H](C)NC(=O)[C@@H](NC(=O)[C@H](CO)NC(=O)[C@@H](NC(=O)[C@H](CCC(=O)O)NC(=O)[C@H](CO)NC(=O)[C@H](C)NC(=O)[C@H](CCC(=O)O)NC(=O)CCCCCCCCCCCCCCCCC(=O)O)C(C)C)[C@@H](C)O)C(C)C)C(=O)N[C@@H](CO)C(=O)N[C@@H](C)C(=O)N[C@@H](CCC(=O)O)C(=O)N[C@@H](CC(C)C)C(=O)N[C@@H](Cc1cnc[nH]1)C(=O)N[C@@H](CCC(=O)O)C(=O)N[C@H](C(=O)N[C@@H](C)C(=O)N[C@H](C(=O)N[C@@H](CC(C)C)C(=O)N1CCC[C@H]1C(=O)N[C@@H](CCCNC(=N)N)C(=O)N[C@H](C(=O)N[C@@H](CCC(=O)O)C(=O)N[C@H](C(=O)NCC(=O)N1CCC[C@H]1C(=O)N[C@@H](CCC(=O)O)C(=O)N[C@@H](CO)C(=O)N1CCC[C@H]1C(N)=O)[C@@H](C)O)[C@@H](C)O)[C@@H](C)O)C(C)C ({C18 diacid}-EASEVSTAVLGRLSAELHEVATLPRTETGPESP-NH2)
